This passage reports EC50 results from patent US20210278408A1, “METHODS OF TREATMENT OF CANCER WITH SUBSTITUTED PYRROLE AND PYRAZOLE COMPOUNDS AND DIAGNOSIS OF CANCERS SUSCEPTIBLE TO TREATMENT WITH SUBSTITUTED PYRROLE AND PYRAZOLE COMPOUNDS” (Bantam Pharmaceutical, LLC, priority 2018, published 2021).

Counter-ions that a name gives are not always drawn. Some results are limits rather than exact numbers.

The assay deals with BJAB (malignant human B-cell-line). The assay is described as follows: BJAB cell proliferation. As to conditions: BJAB (malignant human B-cell-line) cell proliferation, EC50; read-out: BJAB. Format: cell-based. An excerpt:
In certain embodiments, the therapeutic compound is one of the compounds of the compound table below. […] In certain embodiments, the therapeutic compound is a compound having an activity as “A,” “B” or “C” in the table below. In certain embodiments, the therapeutic compound is a compound having an activity as “A” or “B” in the table below. In certain embodiments, the therapeutic compound is a compound having an activity as “A” in the table below.
In certain embodiments, the therapeutic compound is one of the compounds of the compound table below, optionally provided as a pharmaceutically-acceptable salt or N-oxide, and/or a solvate or hydrate. […] In certain embodiments, the therapeutic compound is a compound having an activity as “A,” “B” or “C” in the table below. In certain embodiments, the therapeutic compound is a compound having an activity as “A” or “B” in the table below. In certain embodiments, the therapeutic compound is a compound having an activity as “A” in the table below.
Consider `Cc1nn(-c2nc(N3CCN(C4CC4)CC3)c(SC(C)C)s2)c(C(=O)O)c1-c1cccc(F)c1` [Compound B25, 1-(4-(4-cyclopropylpiperazin-1-yl)-5-(isopropylthio)thiazol-2-yl)-4-(3-fluorophenyl)-3-methyl-1H-pyrazole-5-carboxylic acid], for which the EC50 lay in the range of 5 to 10 µM.

With `CCN1CCN(c2nc(-n3nc(C)c(-c4cccc(F)c4)c3C(=O)O)sc2SC(C)C)CC1` [Compound B26, 1-(4-(4-ethylpiperazin-1-yl)-5-(isopropylthio)thiazol-2-yl)-4-(3-fluorophenyl)-3-methyl-1H-pyrazole-5-carboxylic acid], the EC50 is more than 20 µM.

For the compound `CC(=O)N1CCN(c2nc(-n3nc(C)c(-c4cccc(F)c4)c3C(=O)O)sc2SC(C)C)CC1` [Compound B27, 1-(4-(4-acetylpiperazin-1-yl)-5-(isopropylthio)thiazol-2-yl)-4-(3-fluorophenyl)-3-methyl-1H-pyrazole-5-carboxylic acid], the EC50 is more than 20 µM.

As for `Cc1nn(-c2nc(N3CCC(C)CC3)c(SC(C)C)s2)c(C(=O)O)c1-c1cccc(F)c1` [Compound B28, 4-(3-fluorophenyl)-1-(5-(isopropylthio)-4-(4-methylpiperidin-1-yl)thiazol-2-yl)-3-methyl-1H-pyrazole-5-carboxylic acid], the EC50 was 1 to 5 µM.

`Cc1nn(-c2nnc(-c3ccc(C(F)(F)F)cc3)s2)c(C(=O)O)c1-c1cccc(F)c1` [Compound B30, 4-(3-fluorophenyl)-3-methyl-1-(5-(4-(trifluoromethyl)phenyl)-1,3,4-thiadiazol-2-yl)-1H-pyrazole-5-carboxylic acid]: the EC50 was more than 20 µM.

As for `COCCN(C)c1sc(-n2nc(C)c(-c3cccc(F)c3)c2C(=O)O)nc1-c1ccc(C(F)(F)F)cc1` [Compound B31, 4-(3-fluorophenyl)-1-(5-((2-methoxyethyl)(methyl)amino)-4-(4-(trifluoromethyl)phenyl)thiazol-2-yl)-3-methyl-1H-pyrazole-5-carboxylic acid], the EC50 is 1 to 5 µM.

With `Cc1nn(-c2nc(N3CCC(C)(C)CC3)c(SC(C)C)s2)c(C(=O)O)c1-c1cccc(F)c1` [Compound B32, 1-(4-(4,4-dimethylpiperidin-1-yl)-5-(isopropylthio)thiazol-2-yl)-4-(3-fluorophenyl)-3-methyl-1H-pyrazole-5-carboxylic acid], the EC50 was less than 1 µM.

Take `Cc1nn(-c2nc(N3CCN(C(=O)OC(C)(C)C)CC3)c(SC(C)C)s2)c(C(=O)O)c1-c1cccc(F)c1` [Compound B33, 1-(4-(4-(tert-butoxycarbonyl)piperazin-1-yl)-5-(isopropylthio)thiazol-2-yl)-4-(3-fluorophenyl)-3-methyl-1H-pyrazole-5-carboxylic acid]: the EC50 is more than 20 µM.

In the case of `Cc1nn(-c2nc(N3CCC(C(F)(F)F)C3)c(SC(C)C)s2)c(C(=O)O)c1-c1cccc(F)c1` (centres unmarked) [Compound B34, 4-(3-fluorophenyl)-1-(5-(isopropylthio)-4-(3-(trifluoromethyl)pyrrolidin-1-yl)thiazol-2-yl)-3-methyl-1H-pyrazole-5-carboxylic acid], the EC50 was in the range of 1 to 5 µM.

For `Cc1nn(-c2nc(N3CCNCC3)c(SC(C)C)s2)c(C(=O)O)c1-c1cccc(F)c1` [Compound B35, 4-(3-fluorophenyl)-1-(5-(isopropylthio)-4-(piperazin-1-yl)thiazol-2-yl)-3-methyl-1H-pyrazole-5-carboxylic acid hydrochloric acid salt], the EC50 is more than 20 µM.

On to `CC(C)=Cc1sc(-n2nc(C)c(-c3cccc(F)c3)c2C(=O)O)nc1-c1ccc(C(F)(F)F)cc1` [Compound B36, 4-(3-fluorophenyl)-3-methyl-1-(5-(2-methylprop-1-en-1-yl)-4-(4-(trifluoromethyl)phenyl)thiazol-2-yl)-1H-pyrazole-5-carboxylic acid], for which the EC50 is less than 1 µM.

For the compound `CC(C)=Cc1nc(-n2nc(C)c(-c3cccc(F)c3)c2C(=O)O)sc1-c1ccc(C(F)(F)F)cc1` [Compound B37, 4-(3-fluorophenyl)-3-methyl-1-(4-(2-methylprop-1-en-1-yl)-5-(4-(trifluoromethyl)phenyl)thiazol-2-yl)-1H-pyrazole-5-carboxylic acid], the EC50 fell in the range of 10 to 25 µM.

Turning to `Cc1nn(-c2nc(-c3ccc(C(F)(F)F)cc3)c(-c3ccc(C(F)(F)F)cc3)s2)c(C(=O)O)c1-c1cccc(F)c1` [Compound B38, 1-(4,5-bis(4-(trifluoromethyl)phenyl)thiazol-2-yl)-4-(3-fluorophenyl)-3-methyl-1H-pyrazole-5-carboxylic acid], the EC50 was less than 1 µM.

In the case of `Cc1nn(-c2nc(-c3ccc(C(F)(F)F)cc3)c(-c3ccc(C(F)(F)F)cc3)s2)cc1-c1cccc(F)c1` [Compound B39, 2-(4-(3-fluorophenyl)-3-methyl-1H-pyrazol-1-yl)-4,5-bis(4-(trifluoromethyl)phenyl)thiazole], the EC50 is more than 20 µM.

Consider `Cc1nn(-c2nc(N3CCC(C(C)(C)C)CC3)c(SC(C)C)s2)c(C(=O)O)c1-c1cccc(F)c1` [Compound B40, 1-(4-(4-(tert-butyl)piperidin-1-yl)-5-(isopropylthio)thiazol-2-yl)-4-(3-fluorophenyl)-3-methyl-1H-pyrazole-5-carboxylic acid], for which the EC50 was less than 1 µM.

For `Cc1nn(-c2nc(N3CCC4(CC3)CC4)c(SC(C)C)s2)c(C(=O)O)c1-c1cccc(F)c1` [Compound B41, 4-(3-fluorophenyl)-1-(5-(isopropylthio)-4-(6-azaspiro[2.5]octan-6-yl)thiazol-2-yl)-3-methyl-1H-pyrazole-5-carboxylic acid], the EC50 was 1 to 5 µM.

Turning to `COC1(C(F)(F)F)CCN(c2nc(-n3nc(C)c(-c4cccc(F)c4)c3C(=O)O)sc2SC(C)C)CC1` [Compound B42, 4-(3-fluorophenyl)-1-(5-(isopropylthio)-4-(4-methoxy-4-(trifluoromethyl)piperidin-1-yl)thiazol-2-yl)-3-methyl-1H-pyrazole-5-carboxylic acid], the EC50 was less than 1 µM.

In the case of `COc1ccc(-c2nc(-n3nc(C)c(-c4cccc(F)c4)c3C(=O)O)sc2-c2ccc(C(F)(F)F)cc2)cc1` [Compound B43, 4-(3-fluorophenyl)-1-(4-(4-methoxyphenyl)-5-(4-(trifluoromethyl)phenyl)thiazol-2-yl)-3-methyl-1H-pyrazole-5-carboxylic acid], the EC50 was in the range of 1 to 5 µM.

In the case of `COc1ccc(-c2nc(-n3nc(C)c(-c4cccc(F)c4)c3C(=O)O)sc2-c2ccc(OC)cc2)cc1` [Compound B44, 1-(4,5-bis(4-methoxyphenyl)thiazol-2-yl)-4-(3-fluorophenyl)-3-methyl-1H-pyrazole-5-carboxylic acid], the EC50 is 10 to 25 µM.

As for `COc1ccc(-c2sc(-n3nc(C)c(-c4cccc(F)c4)c3C(=O)O)nc2-c2ccc(C(F)(F)F)cc2)cc1` [Compound B45, 4-(3-fluorophenyl)-1-(5-(4-methoxyphenyl)-4-(4-(trifluoromethyl)phenyl)thiazol-2-yl)-3-methyl-1H-pyrazole-5-carboxylic acid], the EC50 was less than 1 µM.

Consider `Cc1nn(-c2nc(N3CCN(C(C)(C)C)C(=O)C3)c(SC(C)C)s2)c(C(=O)O)c1-c1cccc(F)c1` [Compound B46, 1-(4-(4-(tert-butyl)-3-oxopiperazin-1-yl)-5-(isopropylthio)thiazol-2-yl)-4-(3-fluorophenyl)-3-methyl-1H-pyrazole-5-carboxylic acid], for which the EC50 was more than 20 µM.

Consider `CNC(=O)CCc1sc(-n2nc(C)c(-c3cccc(F)c3)c2C(=O)O)nc1-c1ccc(C(F)(F)F)cc1` [Compound B47, 4-(3-fluorophenyl)-3-methyl-1-(5-(3-(methylamino)-3-oxopropyl)-4-(4-(trifluoromethyl)phenyl)thiazol-2-yl)-1H-pyrazole-5-carboxylic acid], for which the EC50 is more than 20 µM.

Turning to `COCCOC1(C(F)(F)F)CCN(c2nc(-n3nc(C)c(-c4cccc(F)c4)c3C(=O)O)sc2SC(C)C)CC1` [Compound B48, 4-(3-fluorophenyl)-1-(5-(isopropylthio)-4-(4-(2-methoxyethoxy)-4-(trifluoromethyl)piperidin-1-yl)thiazol-2-yl)-3-methyl-1H-pyrazole-5-carboxylic acid], the EC50 lay in the range of 1 to 5 µM.

In the case of `COCCNC(=O)c1ccc(-c2sc(-n3nc(C)c(-c4cccc(F)c4)c3C(=O)O)nc2-c2ccc(C(F)(F)F)cc2)cc1` [Compound B49, 4-(3-fluorophenyl)-1-(5-(4-((2-methoxyethyl)carbamoyl)phenyl)-4-(4-(trifluoromethyl)phenyl)thiazol-2-yl)-3-methyl-1H-pyrazole-5-carboxylic acid], the EC50 is more than 20 µM.

For `COCCN(C)C(=O)c1ccc(-c2sc(-n3nc(C)c(-c4cccc(F)c4)c3C(=O)O)nc2-c2ccc(C(F)(F)F)cc2)cc1` [Compound B50, 4-(3-fluorophenyl)-1-(5-(4-((2-methoxyethyl)(methyl)carbamoyl)phenyl)-4-(4-(trifluoromethyl)phenyl)thiazol-2-yl)-3-methyl-1H-pyrazole-5-carboxylic acid], the EC50 is more than 20 µM.

With `COCC(=O)Nc1ccc(-c2sc(-n3nc(C)c(-c4cccc(F)c4)c3C(=O)O)nc2-c2ccc(C(F)(F)F)cc2)cc1` [Compound B51, 4-(3-fluorophenyl)-1-(5-(4-(2-methoxyacetamido)phenyl)-4-(4-(trifluoromethyl)phenyl)thiazol-2-yl)-3-methyl-1H-pyrazole-5-carboxylic acid], the EC50 was in the range of 10 to 25 µM.
